# PubChem BioAssay (NCI)
#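 Tested at 5 concentrations; 48 h exposure; 96-well plates; endpoints linearly interpolated, else capped at highest concentration. TGI denotes the concentration required for complete inhibition of growth.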
# Assays:
# Experiment in all cases: NCI tumour cell line growth inhibition, 48 h
# [1] = system: 786-0 renal
# [2] = system: A498 renal
# [3] = system: A549 NSCLC
# [4] = system: ACHN renal
# [5] = system: BT-549 breast
# [6] = system: CAKI-1 renal
# [7] = system: CCRF-CEM leukemia
# [8] = system: COLO 205 colon
# [9] = system: DU-145 prostate
# [10] = system: EKVX NSCLC
# [11] = system: HCC-2998 colon
# [12] = system: HCT-116 colon
# [13] = system: HCT-15 colon
# [14] = system: HL-60(TB) leukemia
# [15] = system: HOP-62 NSCLC
# [16] = system: HOP-92 NSCLC
# [17] = system: HS 578T breast
# [18] = system: HT29 colon
# [19] = system: IGROV1 ovarian
# [20] = system: K-562 leukemia
# [21] = system: KM12 colon
# [22] = system: LOX IMVI melanoma
# [23] = system: M14 melanoma
# [24] = system: MALME-3M melanoma
# [25] = system: MCF7 breast
# [26] = system: MDA-MB-231 breast
# [27] = system: MDA-MB-435
# [28] = system: MDA-N
# [29] = system: MOLT-4 leukemia
# [30] = system: NCI-H226 lung
# [31] = system: NCI-H23 lung
# [32] = system: NCI-H460 lung
# [33] = system: NCI/ADR-RES ovarian
# [34] = system: OVCAR-3 ovarian
# [35] = system: OVCAR-4 ovarian
# [36] = system: OVCAR-5 ovarian
# [37] = system: OVCAR-8 ovarian
# [38] = system: PC-3 prostate
# [39] = system: RPMI-8226 leukemia
# [40] = system: RXF 393 renal
# [41] = system: SF-268 CNS
# [42] = system: SF-295 CNS
# [43] = system: SF-539 CNS
# [44] = system: SK-MEL-2 melanoma
# [45] = system: SK-MEL-28 melanoma
# [46] = system: SK-MEL-5 melanoma
# [47] = system: SK-OV-3 ovarian
# [48] = system: SN12C renal
# [49] = system: SNB-19 CNS
# [50] = system: SNB-75 CNS
# [51] = system: SW-620 colon
# [52] = system: T-47D breast
# [53] = system: TK-10 renal
# [54] = system: U251 CNS
# [55] = system: UACC-257 melanoma
# [56] = system: UACC-62 melanoma
# [57] = system: UO-31 renal
compound,measurement,setting,value
O=C(CCc1ccccc1)ON1C(=S)NC(c2ccccc2)(c2ccccc2)C1=S,TGI,[1],> 100 µM
same,TGI,[2],> 100 µM
same,TGI,[3],> 100 µM
same,TGI,[4],> 100 µM
same,TGI,[5],> 100 µM
same,TGI,[6],> 100 µM
same,TGI,[7],93.4 µM
same,TGI,[8],> 100 µM
same,TGI,[9],> 100 µM
same,TGI,[10],> 100 µM
same,TGI,[11],> 100 µM
same,TGI,[12],> 100 µM
same,TGI,[13],> 100 µM
same,TGI,[14],61.2 µM
same,TGI,[15],> 100 µM
same,TGI,[16],> 100 µM
same,TGI,[17],> 100 µM
same,TGI,[18],93.6 µM
same,TGI,[19],82.7 µM
same,TGI,[20],> 100 µM
same,TGI,[21],89.7 µM
same,TGI,[22],52.8 µM
same,TGI,[23],> 100 µM
same,TGI,[24],71.5 µM
same,TGI,[25],> 100 µM
same,TGI,[26],> 100 µM
same,TGI,[27],> 100 µM
same,TGI,[28],> 100 µM
same,TGI,[29],75.5 µM
same,TGI,[30],93.1 µM
same,TGI,[31],97.6 µM
same,TGI,[32],> 100 µM
same,TGI,[33],> 100 µM
same,TGI,[34],> 100 µM
same,TGI,[35],> 100 µM
same,TGI,[36],> 100 µM
same,TGI,[37],> 100 µM
same,TGI,[38],63.8 µM
same,TGI,[39],80.4 µM
same,TGI,[40],93 µM
same,TGI,[41],> 100 µM
same,TGI,[42],> 100 µM
same,TGI,[43],> 100 µM
same,TGI,[44],47.8 µM
same,TGI,[45],> 100 µM
same,TGI,[46],40.6 µM
same,TGI,[47],> 100 µM
same,TGI,[48],> 100 µM
same,TGI,[49],> 100 µM
same,TGI,[50],> 100 µM
same,TGI,[51],> 100 µM
same,TGI,[52],> 100 µM
same,TGI,[53],> 100 µM
same,TGI,[54],> 100 µM
same,TGI,[55],> 100 µM
same,TGI,[56],> 100 µM
same,TGI,[57],> 100 µM
